Measurements from patent publication US20230263786A1, “MODULATION OF DRUG-DRUG INTERACTIONS OF VADADUSTAT” (Akebia Therapeutics, Inc., priority 2020, published 2023).

What was measured:
[1] = test system: erythropoietin; experiment: Blood erythropoietin concentration increasing action; type: in vivo; conditions: normal rat, single oral administration
[2] = test system: hemoglobin concentration and red blood cell count; experiment: Hemoglobin concentration and red blood cell count after repeated dosing; type: in vivo, rat; conditions: normal rats, repeated oral administration for 14 days
[3] = test system: hemoglobin; experiment: Phase III clinical trial in patients with hemodialysis anemia; type: in vivo, human
Protocol: The incidence of adverse reactions when this drug was administered up to 24 weeks was 8.3% (2/24 cases).

[4] = Phase 1 oral iron interaction study, Cohort 1 (after meal): sodium ferrous citrate, ferric citrate hydrate; type: in vivo, human; conditions: for AUC(0-inf) / AUC(0-t) / Cmax / half-life: male, human, plasma, oral; for AUC(0-inf): read-out: AUC(0-inf), LS geometric mean; for AUC(0-t): read-out: AUC(0-last), LS geometric mean; for Cmax: read-out: Cmax, LS geometric mean; for half-life: read-out: t1/2, LS geometric mean (converted)
From the text: (§1) The study included 3 periods as follow: • Screening: performed within 4 weeks before the day of administration of the study drug. • Evaluation period: Cohort 1 was confined to the study site for 10-night, 11-day. Cohort 2 and Cohort 3 were confined to the study site for 7 nights and 8 days. • Post-administration tests: performed 3 days after administration of the last dose of the study drug.
In Cohort 1, 21 subjects were further randomized into 3 groups (7 subjects per group) and the evaluation period was divided into 3 periods during the study:
(§2) Administration of vadadustat tablets alone: after fasting for at least 10 hours, subjects would eat breakfast over a period of 10 minutes, then immediately after finishing the meal (5 minutes after finishing the meal), 1 vadadustat tablet (150 mg) would be taken orally with 200 mL of water (extra water may be drunk if more is needed when taking the tablet, and the extra volume would be recorded). After breakfast, subjects would fast until the end of the collection of blood samples at 4 hours after administration of the study drug. Subjects would eat lunch over a period of 20 minutes after blood samples were collected at 4 hours after administration of the study drug. After lunch, subjects would fast until dinner, when they would eat dinner over a period of 20 minutes at 10 hours after administration of the study drug. Subjects would fast from dinner until breakfast the next morning.
as §2, with “and sodium ferrous citrate:” for “alone:”, “mg) and 4 tablets of sodium ferrous citrate (containing 200 mg of iron)” for “mg)”, “tablets,” for “tablet,”
Administration of vadadustat tablets and ferric citrate hydrate: after fasting for at least 10 hours, subjects would eat breakfast over a period of 10 minutes, then immediately after finishing the meal (5 minutes after finishing the meal), 1 vadadustat tablet (150 mg) and 8 tablets of ferric citrate hydrate (containing 2000 mg of ferric citrate) would be taken orally with 200 mL of water (extra water may be drunk if more is needed when taking the tablets, and the extra volume will be recorded). After breakfast, subjects would fast until the end of the collection of blood samples at 4 hours after administration of the study drug. After collection of blood samples at 4 hours after administration of the study drug, subjects would eat lunch over a period of 20 minutes, then immediately after finishing the meal, 8 tablets of ferric citrate hydrate (containing 2000 mg of ferric citrate) would be taken orally with 200 mL of water (extra water may be drunk if more is needed when taking the tablet, and the extra volume would be recorded). Subjects would fast from lunch to before dinner, and at 10 hours after administration of the study drug, subjects will eat dinner over a period of 20 minutes, then immediately after finishing the meal, 8 tablets of ferric citrate hydrate (containing 2000 mg of ferric citrate) would be taken orally with 200 mL of water (extra water may be drunk if more is needed when taking the tablets, and the extra volume would be recorded). Subjects would fast from dinner until breakfast the next morning.

[5] = Phase 1 oral iron interaction study, Cohort 3 (fasting): dried ferrous sulfate slow release; type: in vivo, human; conditions: for AUC(0-inf) / AUC(0-t) / Cmax / half-life: male, human, plasma, oral; for AUC(0-inf): read-out: AUC(0-inf), LS geometric mean; for AUC(0-t): read-out: AUC(0-last), LS geometric mean; for Cmax: read-out: Cmax, LS geometric mean; for half-life: read-out: t1/2, LS geometric mean (converted)
From the text: as §1
In Cohort 3, 20 subjects were further randomized into 2 groups (10 subjects per group) and the evaluation period was divided into 2 periods during the study:
as §2, with “hours,” for “hours, subjects would eat breakfast over a period of 10 minutes, then immediately after finishing the meal (5 minutes after finishing the meal),”, “Subjects” for “After breakfast, subjects”
as §2, with “and dried ferrous sulfate:” for “alone:”, “hours,” for “hours, subjects would eat breakfast over a period of 10 minutes, then immediately after finishing the meal (5 minutes after finishing the meal),”, “mg) and 2 tablets of dried ferrous sulfate (containing 210 mg of iron)” for “mg)”, “tablets,” for “tablet,”, “Subjects” for “After breakfast, subjects”

[6] = Phase I ferrous sulfate tablet interaction study;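 note: crossover in fasted human subjects with four-day washout between periods, plasma glucuronide metabolite pharmacokinetics, ratios computed as metabolite over parent for AUC and Cmax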
Protocol: Pharmacokinetics. […] The ratio of metabolite to parent was calculated for each glucuronide metabolite for AUC(0-t); and AUC(0-inf) and Cmax.
Comparative Bioavailability. […] Factors incorporated in the model included: Sequence, Subject (Sequence), Period, and Treatment.
Treatment of Subjects. […] All subjects are dosed on the same day for Day 1 of Confinement Period 1, and are crossed over to the alternate treatment and are dosed on the same day for Day 1 of Confinement Period 2. Both treatments are administered in a fasted state, and a four-day Washout Period separates each Confinement Period.

[7] = 150 mg with ferric citrate hydrate (2000 mg ferric citrate)
[8] = 150 mg with sodium ferrous citrate (200 mg iron)
[9] = 150 mg, Compound 1 150 mg alone
[10] = 150 mg with dried ferrous sulfate slow release (210 mg iron), fasting
[11] = Compound 1+Iron compared to Compound 1 alone

## O=C(O)CNC(=O)c1ncc(-c2cccc(Cl)c2)cc1O [Compound 1, {[5-(3-chlorophenyl)-3-hydroxypyridine-2-carbonyl]amino}acetic acid]
[1]
  blood erythropoietin levels: elevated
[2]
  hemoglobin concentration: increasing
  red blood cell count: increasing
[3]; administered up to 24 weeks
  incidence of adverse reactions: 8.3%
[3]; at 20 and 24 weeks, 150-600 mg once daily, adjusted average ± standard error
  Average hemoglobin level, After administration: 10.75 ± 0.19
[3]; hemodialysis anemia patients, baseline, mean ± standard deviation
  Average hemoglobin level, Before administration: 9.30 ± 0.67
[4]; [7]
  Kel, LS geometric mean: 0.16 h⁻¹
  AUC(0-inf): 32400 ng·h/mL
  AUC(0-t): 31100 ng·h/mL
  Cmax: 5180 ng/mL
  half-life: 4.26 h
[4]; [8]
  Kel, LS geometric mean: 0.13 h⁻¹
  AUC(0-inf): 46600 ng·h/mL
  AUC(0-t): 44400 ng·h/mL
  Cmax: 6960 ng/mL
  half-life: 5.34 h
[4]; Compound 1 150 mg alone
  Kel, LS geometric mean: 0.13 h⁻¹
[4]; [9]
  AUC(0-inf): 104000 ng·h/mL
  AUC(0-t): 99200 ng·h/mL
  Cmax: 14300 ng/mL
  half-life: 5.32 h
[5]; [10]
  Kel, LS geometric mean: 0.14 h⁻¹
  AUC(0-inf): 13200 ng·h/mL
  AUC(0-t): 12000 ng·h/mL
  Cmax: 2140 ng/mL
  half-life: 4.8 h
[5]; Compound 1 150 mg alone, fasting
  Kel, LS geometric mean: 0.13 h⁻¹
[5]; 150 mg
  AUC(0-inf): 128000 ng·h/mL
  AUC(0-t): 124000 ng·h/mL
  Cmax: 26500 ng/mL
  half-life: 5.17 h
[6]; [11]
  lowering of Cmax: approximately 51%
  lowering of mean plasma AUC (AUC0-t and AUC0-inf): approximately 54%
[6]; single 450 mg dose with or without ferrous sulfate
  AEs, SAEs, deaths: no AEs, SAEs, or deaths
